Where a name gives a salt, the structure may show the parent alone.
How the values were obtained:
systolic blood pressure = assay: Reduction in systolic blood pressure in the unanesthetized spontaneous hypertensive rat (antihypertensive activity); assay type: in vivo; settings: single oral medication
Procedure: Antihypertensive activity was determined on the basis of the observed reduction in systolic blood pressure measured according to the method of H. Kersten et al., J. Lab. and Clin. Med. 32, 1090 (1947) following a single oral medication in the unanesthetized spontaneous hypertensive rat described by Okamato et al., Japan Circulation J. 27, 282 (1963).

[1] = system: respiratory smooth muscle; assay: Inhibition of histamine-induced bronchoconstriction in the dog (β-adrenergic stimulant activity); assay type: in vivo; settings: 100-200 mcg/kg, over a period of 2 hours
[2] = system: hind limb vasculature of the anesthetized dog; isolated rabbit ear artery; assay: Reduction in perfusion pressure in hind limb vasculature of the anesthetized dog and in the isolated rabbit ear artery (vasodilator activity); assay type: in vivo
Text: 17, 357 (1972), and also on the basis of percent reduction in perfusion pressure as measured in the isolated rabbit ear artery according to the method described by De La Lande et al. Aust. J. Exp. Biol. Med. Sci. 43, 639 (1965).

cardiac muscle = assay: Increase in heart rate (β-adrenergic stimulant activity); assay type: in vivo; settings: dog; 100-200 mcg/kg
β-adrenergic [3] = assay: Inhibition of isoproterenol-induced heart rate elevation in the pentobarbitalized dog (β-adrenergic blocking activity); assay type: in vivo; settings: test compound 1.0 mg/kg, isoproterenol intravenous
β-adrenergic [4] = settings: Kaiser et al. 1975; cited from earlier work
β-adrenergic [5] = settings: Kaiser et al. 1975; cited from earlier work; remark: listed apart in the source

Structure (SMILES) | antihypertensive activity (reduction in systolic blood pressure) (systolic blood pressure) | inhibition of the histamine-induced bronchoconstriction [1] [%] | vasodilator activity (reduction in perfusion pressure) [2] | increase in heart rate (β-adrenergic stimulant activity) (cardiac muscle) | % Inhibition of Heart Rate Elevation (β-adrenergic [3]) [%] | β-adrenergic agonist activity (β-adrenergic [4]) | β-adrenergic antagonistic activity (β-adrenergic [5])
CSc1cc(C(O)CNC(C)(C)C)ccc1OC(C)=O (stereo not drawn) [Example 3, α-[(tert-butylamino)methyl]-4-hydroxy-3-(methylthio)benzenemethanol 4-acetate hydrochloride] | antihypertensive | 50 | vasodilator activity | increase in heart rate | 50 |  | 
C[S+]([O-])c1cc(C(O)CNC(C)(C)C)ccc1O (stereo not drawn) [Example 4, α-[(t-butylamino)methyl]-4-hydroxy-3-(methylsulfinyl)benzenemethanolmethanesulfonate] | antihypertensive | 50 | vasodilator activity | increase in heart rate | 100 |  | 
CC(C)(C)NCC(O)c1ccc(O)c(S(C)(=O)=O)c1 (stereo not drawn) [Example 6, α-[(t-butylamino)methyl]-4-hydroxy-3-(methylsulfonyl)benzenemethanolmethanesulfonate] |  |  |  |  | 87 |  | 
CC(C)(C)NCC(O)c1ccc(O)c(S(C)(=O)=O)c1 (stereo not shown) [drawing 3] |  |  |  |  |  | weakly active | exhibits β-adrenergic antagonistic activity
